Earlier results in US9987593B2, “Method for producing NOx storage-reduction catalyst” (TOYOTA JIDOSHA KABUSHIKI KAISHA, priority 2016, dated 2018).

SMILES | solubility in water (in words) | solubility in water [mg/100 ml H2O]
O=C(O)c1nc(=O)[nH]c(=O)[nH]1 [oteracil potassium, reference compound] | substantially insoluble in water | 
[K+].c1ccc([B-](c2ccccc2)(c2ccccc2)c2ccccc2)cc1 [potassium tetraphenylborate] | substantially insoluble in water | 0.18
